Measurements published in PubChem BioAssay (NCI).
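Cells were grown in 96-well plates and exposed to each compound for 48 hours at five concentrations; endpoints were interpolated linearly between bracketing concentrations, or set to the highest concentration if not reached. Here, GI50 denotes the concentration required for 50% inhibition of growth. TGI: concentration producing complete growth inhibition.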

Key:
Assay in all cases: NCI-60 cell line screen, 48 h
NCI-H23 lung = test system: NCI-H23 lung
HS 578T breast = test system: HS 578T breast
K-562 leukemia = test system: K-562 leukemia
SW-620 colon = test system: SW-620 colon
RXF 393 renal = test system: RXF 393 renal
KM12 colon = test system: KM12 colon
NCI-H460 lung = test system: NCI-H460 lung
SK-MEL-5 melanoma = test system: SK-MEL-5 melanoma
COLO 205 colon = test system: COLO 205 colon
SK-MEL-2 melanoma = test system: SK-MEL-2 melanoma
HCC-2998 colon = test system: HCC-2998 colon
SNB-75 CNS = test system: SNB-75 CNS
HCT-116 colon = test system: HCT-116 colon
OVCAR-4 ovarian = test system: OVCAR-4 ovarian
PC-3 prostate = test system: PC-3 prostate
HT29 colon = test system: HT29 colon
HL-60(TB) leukemia = test system: HL-60(TB) leukemia
SF-268 CNS = test system: SF-268 CNS
M14 melanoma = test system: M14 melanoma
MDA-MB-231 breast = test system: MDA-MB-231 breast
UACC-257 melanoma = test system: UACC-257 melanoma
SF-539 CNS = test system: SF-539 CNS
LOX IMVI melanoma = test system: LOX IMVI melanoma
TK-10 renal = test system: TK-10 renal
MALME-3M melanoma = test system: MALME-3M melanoma
UO-31 renal = test system: UO-31 renal
BT-549 breast = test system: BT-549 breast
U251 CNS = test system: U251 CNS
CAKI-1 renal = test system: CAKI-1 renal
SN12C renal = test system: SN12C renal
UACC-62 melanoma = test system: UACC-62 melanoma
HOP-92 NSCLC = test system: HOP-92 NSCLC
OVCAR-5 ovarian = test system: OVCAR-5 ovarian
MCF7 breast = test system: MCF7 breast
IGROV1 ovarian = test system: IGROV1 ovarian
SK-OV-3 ovarian = test system: SK-OV-3 ovarian
ACHN renal = test system: ACHN renal
RPMI-8226 leukemia = test system: RPMI-8226 leukemia
HOP-62 NSCLC = test system: HOP-62 NSCLC
MDA-MB-435 = test system: MDA-MB-435
786-0 renal = test system: 786-0 renal
A498 renal = test system: A498 renal
MOLT-4 leukemia = test system: MOLT-4 leukemia
NCI-H522 lung = test system: NCI-H522 lung
T-47D breast = test system: T-47D breast
OVCAR-8 ovarian = test system: OVCAR-8 ovarian
SNB-19 CNS = test system: SNB-19 CNS
DU-145 prostate = test system: DU-145 prostate
NCI/ADR-RES ovarian = test system: NCI/ADR-RES ovarian
SK-MEL-28 melanoma = test system: SK-MEL-28 melanoma
OVCAR-3 ovarian = test system: OVCAR-3 ovarian
SF-295 CNS = test system: SF-295 CNS
A549 NSCLC = test system: A549 NSCLC
SR leukemia = test system: SR leukemia
HCT-15 colon = test system: HCT-15 colon
NCI-H226 lung = test system: NCI-H226 lung
CCRF-CEM leukemia = test system: CCRF-CEM leukemia

`COc1cc(Nc2c(C#N)cnc3cc(OCCCN4CCN(C)CC4)c(OC)cc23)c(Cl)cc1Cl` gave a GI50 (NCI-H23 lung) of 4.55 µM, a TGI (NCI-H23 lung) of 17.7 µM and a GI50 (HS 578T breast) of 1.6 µM. It also gave a TGI (HS 578T breast) of 26 µM, a GI50 (K-562 leukemia) of 0.0211 µM and a TGI (K-562 leukemia) of 3.82 µM. The GI50 (SW-620 colon) was 3.26 µM, the TGI (SW-620 colon) was 11.4 µM and the GI50 (RXF 393 renal) was 0.85 µM. For the same molecule, the TGI (RXF 393 renal) was 6.02 µM, the GI50 (KM12 colon) was 0.331 µM and the TGI (KM12 colon) was 7.24 µM. For the same molecule, the GI50 (NCI-H460 lung) was 3.99 µM, the TGI (NCI-H460 lung) was 17.7 µM and the GI50 (SK-MEL-5 melanoma) was 2.09 µM. For the same molecule, the TGI (SK-MEL-5 melanoma) was 5.71 µM, the GI50 (COLO 205 colon) was 1.6 µM and the TGI (COLO 205 colon) was 3.03 µM. For the same molecule, the GI50 (SK-MEL-2 melanoma) was 2.97 µM, the TGI (SK-MEL-2 melanoma) was 8.67 µM and the GI50 (HCC-2998 colon) was 3.08 µM. The TGI (HCC-2998 colon) was 9.21 µM, the GI50 (SNB-75 CNS) was 0.707 µM and the TGI (SNB-75 CNS) was 8.38 µM. It also gave a GI50 (HCT-116 colon) of 0.746 µM, a TGI (HCT-116 colon) of 4.71 µM and a GI50 (OVCAR-4 ovarian) of 4.6 µM. The TGI (OVCAR-4 ovarian) was 21 µM, the GI50 (PC-3 prostate) was 5.02 µM and the TGI (PC-3 prostate) was 16.7 µM. For the same molecule, the GI50 (HT29 colon) was 0.689 µM, the TGI (HT29 colon) was 5.38 µM and the GI50 (HL-60(TB) leukemia) was 1.59 µM. The TGI (HL-60(TB) leukemia) was 3.63 µM, the GI50 (SF-268 CNS) was 2.34 µM and the TGI (SF-268 CNS) was 10.3 µM. For the same molecule, the GI50 (M14 melanoma) was 1.3 µM, the TGI (M14 melanoma) was 3.03 µM and the GI50 (MDA-MB-231 breast) was 2.76 µM. It also gave a TGI (MDA-MB-231 breast) of 7.14 µM, a GI50 (UACC-257 melanoma) of 1.76 µM and a TGI (UACC-257 melanoma) of 3.46 µM. The GI50 (SF-539 CNS) was 2.3 µM, the TGI (SF-539 CNS) was 5.83 µM and the GI50 (LOX IMVI melanoma) was 1.15 µM. For the same molecule, the TGI (LOX IMVI melanoma) was 2.75 µM, the GI50 (TK-10 renal) was 0.469 µM and the TGI (TK-10 renal) was 11.3 µM. It also gave a GI50 (MALME-3M melanoma) of 1.83 µM, a TGI (MALME-3M melanoma) of 3.67 µM and a GI50 (UO-31 renal) of 0.687 µM. It also gave a TGI (UO-31 renal) of 7.75 µM, a GI50 (BT-549 breast) of 6.78 µM and a TGI (BT-549 breast) of 18.3 µM. The GI50 (U251 CNS) was 3.1 µM, the TGI (U251 CNS) was 8.37 µM and the GI50 (CAKI-1 renal) was 0.482 µM. It also gave a TGI (CAKI-1 renal) of 5.13 µM, a GI50 (SN12C renal) of 0.308 µM and a TGI (SN12C renal) of 14.4 µM. For the same molecule, the GI50 (UACC-62 melanoma) was 2.48 µM, the TGI (UACC-62 melanoma) was 7.01 µM and the GI50 (HOP-92 NSCLC) was 2.08 µM. The TGI (HOP-92 NSCLC) was 10.5 µM, the GI50 (OVCAR-5 ovarian) was 1.19 µM and the TGI (OVCAR-5 ovarian) was 16.2 µM. It also gave a GI50 (MCF7 breast) of 2.79 µM, a TGI (MCF7 breast) of 17.8 µM and a GI50 (IGROV1 ovarian) of 0.279 µM. It also gave a TGI (IGROV1 ovarian) of 3.09 µM, a GI50 (SK-OV-3 ovarian) of 0.884 µM and a TGI (SK-OV-3 ovarian) of 12.3 µM. For the same molecule, the GI50 (ACHN renal) was 0.317 µM, the TGI (ACHN renal) was 9.7 µM and the GI50 (RPMI-8226 leukemia) was 5.32 µM. It also gave a TGI (RPMI-8226 leukemia) of 13.9 µM, a GI50 (HOP-62 NSCLC) of 4.69 µM and a TGI (HOP-62 NSCLC) of 17.6 µM. It also gave a GI50 (MDA-MB-435) of 1.97 µM, a TGI (MDA-MB-435) of 5.36 µM and a GI50 (786-0 renal) of 2.09 µM. It also gave a TGI (786-0 renal) of 9.93 µM, a GI50 (A498 renal) of 0.586 µM and a TGI (A498 renal) of 2.22 µM. It also gave a GI50 (MOLT-4 leukemia) of 1.91 µM, a TGI (MOLT-4 leukemia) of 7.38 µM and a GI50 (NCI-H522 lung) of 0.393 µM. It also gave a TGI (NCI-H522 lung) of 6.36 µM, a GI50 (T-47D breast) of 3.1 µM and a TGI (T-47D breast) of 18.2 µM. It also gave a GI50 (OVCAR-8 ovarian) of 2.35 µM, a TGI (OVCAR-8 ovarian) of 14.4 µM and a GI50 (SNB-19 CNS) of 9.26 µM. For the same molecule, the TGI (SNB-19 CNS) was 21.1 µM, the GI50 (DU-145 prostate) was 1.19 µM and the TGI (DU-145 prostate) was 14.6 µM. It also gave a GI50 (NCI/ADR-RES ovarian) of 4.6 µM, a TGI (NCI/ADR-RES ovarian) of 42.9 µM and a GI50 (SK-MEL-28 melanoma) of 2.13 µM. For the same molecule, the TGI (SK-MEL-28 melanoma) was 5.08 µM, the GI50 (OVCAR-3 ovarian) was 2.78 µM and the TGI (OVCAR-3 ovarian) was 14.4 µM. For the same molecule, the GI50 (SF-295 CNS) was 7.55 µM, the TGI (SF-295 CNS) was 21 µM and the GI50 (A549 NSCLC) was 2.74 µM. For the same molecule, the TGI (A549 NSCLC) was 13.5 µM, the GI50 (SR leukemia) was 1.35 µM and the TGI (SR leukemia) was 4.51 µM. It also gave a GI50 (HCT-15 colon) of 1.21 µM, a TGI (HCT-15 colon) of 11.8 µM and a GI50 (NCI-H226 lung) of 12.1 µM. The TGI (NCI-H226 lung) was 34.5 µM, the GI50 (CCRF-CEM leukemia) was 1.76 µM and the TGI (CCRF-CEM leukemia) was 5.74 µM.
